Test results reported in PubChem BioAssay (NCI).
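Each compound was tested at five concentrations against cells in 96-well plates for 48 hours. GI50: concentration for 50% inhibition of growth. TGI marks complete inhibition of growth.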

How the values were obtained:
Assay in all cases: DTP human tumour cell line panel, 48 h
[1] = system: SK-MEL-28 melanoma
[2] = system: NCI-H522 lung
[3] = system: KM12 colon
[4] = system: MDA-MB-231 breast
[5] = system: MCF7 breast
[6] = system: DU-145 prostate
[7] = system: 786-0 renal
[8] = system: NCI-H460 lung
[9] = system: OVCAR-3 ovarian
[10] = system: UACC-257 melanoma
[11] = system: SW-620 colon
[12] = system: OVCAR-5 ovarian
[13] = system: SNB-75 CNS
[14] = system: HCT-116 colon
[15] = system: M14 melanoma
[16] = system: NCI-H23 lung
[17] = system: BT-549 breast
[18] = system: SN12C renal
[19] = system: HL-60(TB) leukemia
[20] = system: HCC-2998 colon
[21] = system: SF-295 CNS
[22] = system: SF-539 CNS
[23] = system: UACC-62 melanoma
[24] = system: SK-MEL-5 melanoma
[25] = system: HCT-15 colon
[26] = system: NCI/ADR-RES ovarian
[27] = system: SNB-19 CNS
[28] = system: RXF 393 renal
[29] = system: OVCAR-4 ovarian
[30] = system: HOP-62 NSCLC
[31] = system: SR leukemia
[32] = system: ACHN renal
[33] = system: A549 NSCLC
[34] = system: PC-3 prostate
[35] = system: RPMI-8226 leukemia
[36] = system: HT29 colon
[37] = system: SF-268 CNS
[38] = system: SK-MEL-2 melanoma
[39] = system: SK-OV-3 ovarian
[40] = system: CCRF-CEM leukemia
[41] = system: NCI-H226 lung
[42] = system: MDA-MB-435
[43] = system: HS 578T breast
[44] = system: IGROV1 ovarian
[45] = system: MALME-3M melanoma
[46] = system: OVCAR-8 ovarian
[47] = system: UO-31 renal
[48] = system: LOX IMVI melanoma
[49] = system: U251 CNS
[50] = system: TK-10 renal
[51] = system: T-47D breast
[52] = system: A498 renal
[53] = system: COLO 205 colon
[54] = system: CAKI-1 renal
[55] = system: K-562 leukemia
[56] = system: MOLT-4 leukemia
[57] = system: HOP-92 NSCLC
[58] = system: EKVX NSCLC

CCCn1cc(C2=C(c3cn(C)c4ccccc34)C(=O)NC2=O)c2ccccc21
GI50 [1]: 2090 nM
TGI [1]: 8690 nM
GI50 [2]: 467 nM
TGI [2]: 4580 nM
GI50 [3]: 1140 nM
TGI [3]: 7920 nM
GI50 [4]: 3910 nM
TGI [4]: 16900 nM
GI50 [5]: 565 nM
TGI [5]: > 16200 nM
GI50 [6]: 1340 nM
TGI [6]: > 22400 nM
GI50 [7]: 1620 nM
TGI [7]: > 25000 nM
GI50 [8]: 1040 nM
TGI [8]: 7390 nM
GI50 [9]: 596 nM
TGI [9]: 2350 nM
GI50 [10]: 1800 nM
TGI [10]: > 25000 nM
GI50 [11]: 968 nM
TGI [11]: > 25000 nM
GI50 [12]: 6760 nM
TGI [12]: > 25000 nM
GI50 [13]: 458 nM
TGI [13]: 2090 nM
GI50 [14]: 1240 nM
TGI [14]: 8520 nM
GI50 [15]: 1830 nM
TGI [15]: > 18200 nM
GI50 [16]: 2670 nM
TGI [16]: 17800 nM
GI50 [17]: 1360 nM
TGI [17]: 5950 nM
GI50 [18]: 2430 nM
TGI [18]: 6470 nM
GI50 [19]: 835 nM
TGI [19]: 3640 nM
GI50 [20]: 4850 nM
TGI [20]: > 25000 nM
GI50 [21]: 715 nM
TGI [21]: 3150 nM
GI50 [22]: 689 nM
TGI [22]: 2800 nM
GI50 [23]: 1630 nM
TGI [23]: 5940 nM
GI50 [24]: 554 nM
TGI [24]: 4360 nM
GI50 [25]: 688 nM
TGI [25]: > 19200 nM
GI50 [26]: 1320 nM
TGI [26]: 24500 nM
GI50 [27]: 5580 nM
TGI [27]: > 25000 nM
GI50 [28]: 663 nM
TGI [28]: 2870 nM
GI50 [29]: 3460 nM
TGI [29]: 14200 nM
GI50 [30]: 1690 nM
TGI [30]: > 18400 nM
GI50 [31]: 352 nM
TGI [31]: 9990 nM
GI50 [32]: 2040 nM
TGI [32]: 7450 nM
GI50 [33]: 1860 nM
TGI [33]: > 25000 nM
GI50 [34]: 1030 nM
TGI [34]: > 25000 nM
GI50 [35]: 1950 nM
TGI [35]: 11600 nM
GI50 [36]: 783 nM
TGI [36]: 6160 nM
GI50 [37]: 2640 nM
TGI [37]: > 16100 nM
GI50 [38]: 702 nM
TGI [38]: 3240 nM
GI50 [39]: 1220 nM
TGI [39]: > 19000 nM
GI50 [40]: 790 nM
TGI [40]: > 11200 nM
GI50 [41]: 2690 nM
TGI [41]: 9780 nM
GI50 [42]: 99.2 nM
TGI [42]: 691 nM
GI50 [43]: 766 nM
TGI [43]: 16000 nM
GI50 [44]: 4030 nM
TGI [44]: > 17000 nM
GI50 [45]: 3440 nM
TGI [45]: 9370 nM
GI50 [46]: 2010 nM
TGI [46]: > 19600 nM
GI50 [47]: 1420 nM
TGI [47]: 12000 nM
GI50 [48]: 2410 nM
TGI [48]: 11200 nM
GI50 [49]: 1170 nM
TGI [49]: 5330 nM
GI50 [50]: 3450 nM
TGI [50]: 22000 nM
GI50 [51]: 897 nM
TGI [51]: 7620 nM
GI50 [52]: 837 nM
TGI [52]: 4770 nM
GI50 [53]: 889 nM
TGI [53]: > 7080 nM
GI50 [54]: 937 nM
TGI [54]: > 23200 nM
GI50 [55]: 392 nM
TGI [55]: > 25000 nM
GI50 [56]: 2450 nM
TGI [56]: > 17800 nM

CC1(C)CC[C@]2(C(=O)n3ccnc3)CC[C@]3(C)[C@H](C(=O)C=C4[C@@]5(C)C=C(C#N)C(=O)C(C)(C)[C@@H]5CC[C@]43C)[C@@H]2C1
GI50 [1]: < 15.5 nM
TGI [1]: 84.8 nM
GI50 [2]: 16.8 nM
TGI [2]: 58.5 nM
GI50 [3]: < 10.4 nM
TGI [3]: < 19.9 nM
GI50 [4]: 18.4 nM
TGI [4]: 68.2 nM
GI50 [5]: < 10 nM
TGI [5]: > 100000 nM
GI50 [6]: < 10 nM
TGI [6]: 17.4 nM
GI50 [7]: < 10 nM
TGI [7]: 19.9 nM
GI50 [8]: < 17.9 nM
TGI [8]: > 100000 nM
GI50 [9]: < 10 nM
TGI [9]: 99.4 nM
GI50 [10]: 71.9 nM
GI50 [12]: 10.3 nM
TGI [12]: 137 nM
GI50 [13]: 23.6 nM
TGI [13]: 187 nM
GI50 [14]: < 11.2 nM
TGI [14]: 27.3 nM
GI50 [15]: 28.7 nM
TGI [15]: 196 nM
GI50 [16]: < 15.1 nM
TGI [16]: 78.6 nM
GI50 [17]: < 32.8 nM
TGI [17]: 126 nM
GI50 [18]: < 17.7 nM
TGI [18]: 40.4 nM
GI50 [20]: < 10 nM
TGI [20]: < 10 nM
GI50 [21]: 15.2 nM
TGI [21]: 97.5 nM
GI50 [22]: < 11.4 nM
TGI [22]: < 33.6 nM
GI50 [23]: < 14 nM
TGI [23]: < 33.6 nM
GI50 [24]: 92.3 nM
TGI [24]: 262 nM
GI50 [25]: < 10 nM
TGI [25]: 20.4 nM
GI50 [26]: < 10 nM
TGI [26]: 89.5 nM
GI50 [28]: 11.4 nM
TGI [28]: 53.6 nM
GI50 [29]: 35.9 nM
TGI [29]: 173 nM
GI50 [30]: 10.5 nM
TGI [30]: 40.2 nM
GI50 [32]: < 11.4 nM
TGI [32]: < 17.2 nM
GI50 [33]: < 21.4 nM
GI50 [34]: < 14.2 nM
TGI [34]: 65.5 nM
GI50 [35]: < 10 nM
TGI [35]: < 10 nM
GI50 [36]: < 11.7 nM
GI50 [37]: 16.4 nM
TGI [37]: > 100000 nM
GI50 [38]: < 33.6 nM
GI50 [39]: 34.7 nM
TGI [39]: 317 nM
GI50 [40]: < 10 nM
TGI [40]: 43.8 nM
GI50 [41]: < 17.8 nM
TGI [41]: < 49.9 nM
GI50 [42]: < 14.8 nM
TGI [42]: 37.3 nM
GI50 [44]: < 10.6 nM
TGI [44]: < 29.2 nM
GI50 [45]: < 11.1 nM
TGI [45]: < 18.8 nM
GI50 [46]: < 10 nM
GI50 [47]: < 10.8 nM
TGI [47]: < 17.4 nM
GI50 [49]: < 10 nM
TGI [49]: 28.1 nM
GI50 [57]: 22.1 nM
TGI [57]: 102 nM
GI50 [50]: < 13.2 nM
TGI [50]: < 22.6 nM
GI50 [51]: 44.6 nM
TGI [51]: 395 nM
GI50 [52]: 112 nM
TGI [52]: 280 nM
GI50 [53]: 13.9 nM
TGI [53]: > 100000 nM
GI50 [58]: 141 nM
TGI [58]: 545 nM
GI50 [54]: < 10 nM
TGI [54]: 39.3 nM
GI50 [55]: < 10 nM
TGI [55]: 130 nM
GI50 [56]: < 10 nM
TGI [56]: < 10 nM
